Measurements: US9890175B2, “Taxane compound, and preparation method and use thereof” (JIANGSU TASLY DIYI PHARMACEUTICAL CO., LTD., priority 2013, dated 2018)

Tests used:
Format in all cases: cell-based
[1] = tested on: HL-60 leukemia; assay: MTT proliferation inhibition, HL-60; conditions: Homo sapiens, HL-60, read-out: Proliferation inhibition rate, HL60 Leukemia
Description: (§1) 1. Cytotoxicity Assay Using Human Tumor Cell Lines
(§2) Paclitaxel was used as the positive drug.

[2] = tested on: K562 leukemia; assay: MTT proliferation inhibition, K562; conditions: Homo sapiens, K562, read-out: Proliferation inhibition rate, K562 Leukemia
Description: as §1, §2

[3] = tested on: A375 melanoma; assay: MTT proliferation inhibition, A375; conditions: Homo sapiens, A-375, read-out: Proliferation inhibition rate, A375 Melanoma
Description: as §1, §2

[4] = tested on: B16 melanoma; assay: MTT proliferation inhibition, B16; conditions: B16, read-out: Proliferation inhibition rate, B16 Melanoma
Description: as §1, §2

[5] = tested on: breast cancer cell line MCF-7; assay: IC50 on breast cancer cell line MCF-7; conditions: Homo sapiens, MCF7, 72 h, read-out: MCF-7 (IC50, nM)
[6] = tested on: LN-18; assay: MTT proliferation inhibition, LN-18; conditions: Homo sapiens, LN-18, read-out: Proliferation inhibition rate, LN-18 Gastric canser
Description: as §1, §2

**Q.** What does the source list for CO[C@H]1C[C@H]2OC[C@@]2(OC(C)=O)[C@H]2[C@H](OC(=O)c3ccccc3)[C@]34OC(=O)O[C@H]3[C@H](OC(=O)[C@H](O)[C@@H](NC(=O)OC(C)(C)C)c3ccccc3)C(C)=C([C@@H](OC(=O)N(C)C)C(=O)[C@]12C)C4(C)C [PCMI-08]?
**A.** inhibition at 1 µM [1]: 96.8%; inhibition at 1 µM [2]: 90.8%; inhibition at 1 µM [3]: 92.8%; inhibition at 1 µM [4]: 70.6%; IC50 [5]: 7.93 ± 0.14 nM; inhibition at 1 µM [6]: 87.7%
